According to paper PMC8575619, “Cytotoxic and Antifungal Amides Derived from Ferulic Acid: Molecular Docking and Mechanism of Action” (BioMed Research International, 2021):

Assays:
Candida krusei CBS 573 = assay: Minimum fungicide concentration (MFC); assay type: cell-based; conditions: ≥ 4 fungistatic or <4 fungicide
Description: (§1) Antifungal activity evaluations were performed using references strains of Candida spp., obtained from the Centraalbureau voor Schimmelcultures (CBS, Ultrecht, Netherlands): Candida albicans CBS 562, Candida tropicalis CBS 94, and Candida krusei CBS 573. Nystatin, Tween 80%, DMSO, caspofungin diacetate, and ergosterol were obtained from Sigma-Aldrich® (St. Louis, MO, EUA) and sorbitol (D-sorbitol anhydrous) from INLAB® (São Paulo, Brazil). All assays were performed in triplicate in three independent experiments. The culture medium used for maintenance of the microorganisms was Agar Sabouraud Dextrose (ASD). Inoculants were adjusted to a final concentration of 2.5 × 10^3 CFU/mL (Clinical and Laboratory Standards Institute, 2002). […]
(§2) The minimum fungicide concentration (MFC) of the compounds was obtained after the interpretation of the MIC. Three (3) aliquots of 30 μL of supernatant were removed from the wells (where complete inhibition of fungal growth was analyzed) and placed in Petri dishes containing 15 mL of agar Sabouraud dextrose. The plates were incubated at 35 ± 2°C for 24 h for visual counting of colony forming units. To determine whether the compounds had fungistatic (MFC/MIC ≥ 4) or fungicidal (MFC/MIC < 4) activity, the MFC/MIC ratio was calculated.

[1] = system: Candida tropicalis CBS 94; assay: Minimum fungicide concentration (MFC); assay type: cell-based; conditions: ≥ 4 fungistatic or <4 fungicide
Description: as §1, §2

Candida albicans CBS 562 [2] = assay: MIC by broth microdilution; assay type: cell-based; conditions: 24 h, N.A.: no activity
Description: as §1
(§3) MIC was determined by the microdilution technique, as previously described by the adapted Clinical and Laboratory Standards Institute (CLSI, 2002) method. The compounds were subjected to the microdilution technique in 96-well plates, with U bottom. The samples were dissolved with DMSO and sterile distilled water (up to 1.0 mL). Through serial dilutions, concentrations of the evaluated compounds ranging from 1000 μg/mL to 7.8 μg/mL. The culture sterility medium, the evaluated substances, and the microbial growth were carried out in parallel. The plates were closed and subjected to a temperature of 35 ± 2°C for 24 h. 1% TTC (2,3,5-triphenyl tetrazolium chloride, Sigma-Aldrich®, St. Louis, MO, EUA) was added to each well to confirm the presence of viable microorganisms. MIC was defined as the lowest concentration of the test substance that inhibits visible microbial growth.

HCT116 = assay: Cytotoxicity assay, alamar blue test; assay type: cell-based, human; conditions: 72 h, value (95% confidence interval)
Description: (§4) HepG2 cells (human hepatocellular carcinoma), HCT116 (human colon carcinoma), HL-60 (human promyelocytic leukemia), and MRC5 (human lung fibroblast) obtained from the ATCC (Manassas, VA, USA) were used. Cells were cultured in cell culture bottles (75 cm 3, 250 mL volume), and media used were RPMI 1640 and supplemented with 10% fetal bovine serum. Cells were maintained in incubators with 5% CO2 atmosphere at 37°C. Cellular growth was monitored daily with the use of an inversion microscope. The medium was changed whenever cell growth reached the necessary confluence for nutrient renewal. For the maintenance of adhered cells, trypsin (0.25%) was used for the cells to detach from the walls of the bottles.
(§5) To assess the cytotoxicity of the substances, the alamar blue test was performed after 72 h of exposure with the test substances. Alamar blue, known as resazurin [62], is a fluorescent/colorimetric indicator with redox properties. The reduction in alamar blue reflects cell proliferation. This was initially used to indicate cell growth and/or viability in monitoring lymphocyte proliferation and currently has several applications. Initially, cells were plated in 96-well plates (100 μL/well of a solution of 0.3 × 10^6 cells/mL for cells in suspension and 0.7 × 10^5 cells/mL for adhered cells). After 24 h of incubation, the test substances dissolved in DMSO were added to each well and incubated for 72 h. Doxorubicin was used as a positive control. The negative control received the same amount of DMSO. Four hours before the end of the incubation period, 20 μL of the stock solution (0.312 mg/mL) of alamar blue (resazurin) was added to each well. Absorbances were measured at wavelengths of 570 nm (reduced) and 600 nm (oxidized) using a plate reader.

HL-60 = assay: Cytotoxicity assay, alamar blue test; assay type: cell-based, human; conditions: 72 h, value (95% confidence interval); for IC50: read-out: IC50 HL60
Description: as §4, §5

HepG2 cells = assay: Cytotoxicity assay, alamar blue test; assay type: cell-based, human; conditions: 72 h, value (95% confidence interval)
Description: as §4, §5

MRC5 = assay: Cytotoxicity assay, alamar blue test (healthy cell line); assay type: cell-based, human; conditions: 72 h, value (95% confidence interval)
Description: as §4, §5

C. albicans = assay: Ergosterol test (plasma membrane mechanism), microdilution; assay type: cell-based, Candida albicans; conditions: absence of ergosterol
Description: (2) Ergosterol Test. The test of the compounds was performed using the microdilution technique, as previously described, in the presence of exogenous ergosterol at 400 μg/mL. Nystatin was used as positive control. The plates were incubated at 35 ± 2°C, and readings were taken at 24 and 48 h.

Candida albicans CBS 562 [3] = assay: Minimum fungicide concentration (MFC); assay type: cell-based; conditions: ≥ 4 fungistatic or <4 fungicide
Description: as §1, §2

[4] = system: Candida strains (Candida albicans, C. tropicalis, and C. krusei); assay: Antifungal evaluation (MIC/MFC), statements for all Candida strains; assay type: cell-based, Candida spp.; conditions: Candida strains
Description: The antifungal activity (Table 2) of the ten amides was assessed via the minimum inhibitory concentration (MIC) which was determined using the microdilution methods against three species of Candida strains (Candida albicans, C. tropicalis, and C. krusei).
as §1, §3
as §2, with “units.” for “units. To determine whether the compounds had fungistatic (MFC/MIC ≥ 4) or fungicidal (MFC/MIC < 4) activity, the MFC/MIC ratio was calculated.”

C. albicans CBS 562 = assay: Sorbitol assay (cell wall mechanism), microdilution; assay type: cell-based, Candida albicans; conditions: C. albicans CBS 562
Description: (1) Sorbitol Assay. The microdilution technique was performed in the presence of sorbitol (D-sorbitol, anhydrous) (INLAB laboratory), to determine the mode of action of the compounds on the cell wall of C. albicans CBS 562. For this test, the inoculum was prepared with sorbitol to a final concentration of 0.8 M. The plates were incubated at 35 ± 2°C, and readings were taken 24 h and 48 h after incubation. Caspofungin was used as positive control at an initial concentration of 5 mg/mL [68–70].

Row | Substance | MIC/MFC reason C. krusei CBS 573 (Candida krusei CBS 573) | MIC/MFC reason C. tropicalis CBS 94 [1] | MIC C. albicans CBS 562 (Candida albicans CBS 562 [2]) | IC50 (HCT116) | IC50 HCT116 (HCT116) | IC50 (HL-60) | IC50 (HepG2 cells) | IC50 HEPG2 (HepG2 cells) | IC50 (MRC5) | IC50 MRC5 (MRC5) | IC50 HL60 (HL-60) | MIC Without ergosterol (C. albicans) | MIC/MFC reason C. albicans CBS 562 (Candida albicans CBS 562 [3]) | bioactivity category by MIC [4] | MIC Without sorbitol (C. albicans CBS 562; absence of sorbitol) | MIC With sorbitol (C. albicans CBS 562; sorbitol 0.8 M)
1 | (E)-3-(3-hydroxy-4-methoxyphenyl)-N-(4-methylbenzyl)acrylamide [Compound 7] | 1 | 1 | inactive | > 84.1 µM | >25 µg/mL | 53.1 µM | > 84.1 µM | >25 µg/mL | > 84.1 µM | >25 µg/mL | – | – | – | – | – | –
2 | (E)-3-(3-hydroxy-4-methoxyphenyl)-N-phenylacrylamide [Compound 5] | – | – | – | > 88.2 µM | >25 µg/mL | 50.4 µM | > 88.2 µM | >25 µg/mL | > 88.2 µM | >25 µg/mL | 14.28 (9.40–21.70) μg/mL | – | – | – | – | –
3 | (E)-N-(3,4-dimethoxybenzyl)-3-(3-hydroxy-4-methoxyphenyl)acrylamide [Compound 10] | 1 | 1 | – | > 78.9 µM | >25 µg/mL | 36.5 µM | > 78.9 µM | >25 µg/mL | > 78.9 µM | >25 µg/mL | 12.51 (7.41–18.12) μg/mL | 62.25 µg/mL | 1 | good bioactivity (good bioactivity (MIC between 26 and 125 μg/mL)) | 31.25 µg/mL | >1000 µg/mL
4 | (E)-N-(4-chlorobenzyl)-3-(3-hydroxy-4-methoxyphenyl)acrylamide [Compound 9] | 1 | 1 | inactivity | > 78.7 µM | >25 µg/mL | 49 µM | > 78.7 µM | >25 µg/mL | > 78.7 µM | >25 µg/mL | 15.58 (9.26–26.20) μg/mL | – | – | – | – | –
5 | (E)-N-benzyl-3-(3-hydroxy-4-methoxyphenyl)acrylamide [Compound 6] | 1 | – | – | 70.3 µM | 18.93 (13.48–26.57) μg/mL | 64.9 µM | 107 µM | 20.82 (17.45–28.23) μg/mL | 76.5 µM | 20.59 (16.22–26.13) μg/mL | 17.49 (14.24–421.48) μg/mL | – | 1 | – | – | –
6 | (E)-N-cyclohexyl-3-(3-hydroxy-4-methoxyphenyl)acrylamide [Compound 4] | – | – | – | > 90.8 µM | >25 µg/mL | 68.4 µM | > 90.8 µM | >25 µg/mL | > 90.8 µM | >25 µg/mL | 18.84 (11.58–27.65) μg/mL | – | – | – | – | –
